Some test systems named below: Bacillus cereus; Escherichia coli; Pseudomonas aeruginosa; Staphylococcus aureus; Escherichia coli UB1005.
What all share (experiment): ≥ marks a high value that may be exact or a test limit, other limits are often not marked, values filed in µg/mL are converted to µM
Experiment [1] relates to Staphylococcus aureus ATCC 25923.
The test system of experiment [2] is Pseudomonas aeruginosa PAO1.
The test system of experiment [3] is Staphylococcus epidermidis ATCC 12228.
For experiment [4], the system named is Escherichia coli ATCC 25922.

Converted amounts (≈) assume the structure as drawn. A value given as a limit tells only on which side of the number the result lay.

Turning to `CC[C@H](C)[C@H](NC(=O)[C@@H](NC(=O)[C@H](C)NC(=O)[C@@H]1CCCN1C(=O)[C@@H](NC(=O)[C@@H](NC(=O)[C@H](CCCCN)NC(=O)[C@H](CO)NC(=O)[C@H](C)NC(=O)[C@H](CC(C)C)NC(=O)[C@H](CO)NC(=O)CNC(=O)[C@@H](NC(=O)[C@@H](NC(=O)CNC(=O)[C@@H](N)CC(C)C)C(C)C)C(C)C)C(C)C)C(C)C)C(C)C)C(=O)N[C@@H](CO)C(=O)N[C@@H](CCCCN)C(=O)N[C@H](C(=O)N[C@@H](CCCCN)C(=O)O)C(C)C` [LGVVGSLASKVVPAVISKVK], the minimal inhibitory concentration (MIC) was not below 131 µM with Bacillus cereus and more than 131 µM with Escherichia coli.

As to `CC(C)C[C@H](NC(=O)[C@H](C)NC(=O)[C@@H](NC(=O)CNC(=O)[C@H](CCCCN)NC(=O)[C@@H](NC(=O)[C@@H](NC(=O)[C@H](CO)NC(=O)[C@H](CO)NC(=O)CNC(=O)[C@@H](NC(=O)[C@@H]1CCCN1C(=O)[C@H](CCCCN)NC(=O)[C@@H](NC(=O)[C@@H](N)CO)C(C)C)C(C)C)C(C)C)C(C)C)[C@@H](C)O)C(=O)N[C@H](C(=O)N[C@@H](CCCCN)C(=O)N[C@@H](Cc1ccccc1)C(=O)N[C@@H](Cc1ccccc1)C(=O)NCC(=O)O)C(C)C` [SVKPVGSSVVKGTALVKFFG], the minimum inhibitory concentration (MIC) in the experiment with Bacillus cereus was not below 128 µM; in the experiment on Escherichia coli it was more than 128 µM.

Regarding `CC[C@H](C)[C@H](NC(=O)[C@H](Cc1ccccc1)NC(=O)[C@H](CO)NC(=O)[C@H](CCCCN)NC(=O)[C@H](Cc1ccccc1)NC(=O)[C@@H](N)CCCCN)C(=O)N[C@@H](CCCCN)C(=O)N[C@@H](CCCCN)C(=O)N[C@@H](CC(C)C)C(=O)N[C@H](C(=O)N[C@@H](CO)C(=O)N[C@@H](CCCCN)C(=O)N[C@@H](Cc1ccccc1)C(=O)N[C@@H](CC(C)C)C(=O)N[C@@H](Cc1cnc[nH]1)C(=O)N[C@@H](CO)C(=O)N[C@@H](C)C(=O)N[C@@H](CCCCN)C(=O)N[C@@H](CCCCN)C(=O)N[C@@H](Cc1ccccc1)C(N)=O)[C@@H](C)O` [KFKSFIKKLTSKFLHSAKKF], the minimal inhibitory concentration (MIC) against Pseudomonas aeruginosa turned out to be 5.18 µM (≈ 12.5 µg/mL).

Consider `CC[C@H](C)[C@H](NC(=O)[C@@H](NC(=O)[C@H](CCCCN)NC(=O)[C@H](C)NC(=O)[C@H](CC(C)C)NC(=O)[C@H](CCCCN)NC(=O)[C@H](CCCCN)NC(=O)CN)[C@@H](C)O)C(=O)N[C@@H](C)C(=O)N[C@@H](CCCCN)C(=O)N[C@@H](CCC(=O)O)C(=O)N[C@H](C(=O)N[C@@H](C)C(=O)N[C@@H](CCCCN)C(=O)N[C@@H](CCC(N)=O)C(=O)NCC(=O)N[C@@H](C)C(=O)N[C@@H](CCCCN)C(=O)N[C@@H](Cc1ccccc1)C(=O)N[C@@H](C)C(=O)O)C(C)C` [GKKLAKTIAKEVAKQGAKFA], for which the minimum inhibitory concentration (MIC) against Bacillus cereus was not below 123 µM; with Escherichia coli, 30.7 µM (≈ 64 µg/mL).

As for `CC(C)[C@H](NC(=O)CNC(=O)CNC(=O)[C@@H](NC(=O)[C@@H](N)Cc1ccccc1)C(C)C)C(=O)N[C@@H](C)C(=O)N[C@@H](CO)C(=O)N[C@@H](CCCCN)C(=O)N[C@H](C(=O)N[C@H](C(=O)N1CCC[C@H]1C(=O)N[C@@H](CO)C(=O)N[C@H](C(=O)N[C@@H](Cc1ccc(O)cc1)C(=O)N[C@@H](CS)C(=O)N[C@@H](CCCCN)C(=O)N[C@H](C(=O)N[C@@H](CO)C(=O)N[C@@H](CCCCN)C(=O)N[C@@H](CCCCN)C(=O)O)C(C)C)C(C)C)C(C)C)C(C)C` [FVGGVASKVVPSVYCKVSKK], the MIC against Bacillus cereus is not below 123 µM; in the experiment on Escherichia coli it was more than 123 µM.

For `CC[C@H](C)[C@H](NC(=O)CN)C(=O)NCC(=O)N[C@@H](Cc1cnc[nH]1)C(=O)N[C@@H](Cc1ccccc1)C(=O)N[C@@H](CC(C)C)C(=O)N[C@@H](Cc1cnc[nH]1)C(=O)N[C@@H](CCCCN)C(=O)N[C@H](C(=O)N[C@@H](CCCCN)C(=O)N[C@@H](CO)C(=O)N[C@@H](Cc1ccccc1)C(=O)NCC(=O)N[C@@H](CCCCN)C(=O)N[C@@H](CO)C(=O)N[C@@H](Cc1c[nH]c2ccccc12)C(=O)N[C@H](C(=O)NCC(=O)N[C@@H](CCC(=O)O)C(=O)N[C@H](C(=O)N[C@@H](CCSC)C(=O)N[C@@H](CC(N)=O)C(=O)N[C@@H](CO)C(N)=O)[C@@H](C)CC)[C@@H](C)CC)C(C)C` [GIGHFLHKVKSFGKSWIGEIMNS], the MIC against Pseudomonas aeruginosa came to 19 µM (≈ 48.9 µg/mL); against Escherichia coli, 19 µM (≈ 48.9 µg/mL); against Staphylococcus aureus, 76 µM (≈ 195 µg/mL).

In the case of `CC[C@H](C)[C@H](NC(=O)[C@H](C)NC(=O)[C@H](CC(C)C)NC(=O)[C@H](CCCCN)NC(=O)[C@H](CC(C)C)NC(=O)[C@@H](NC(=O)[C@@H](NC(=O)[C@@H](N)CCCCN)[C@@H](C)CC)[C@@H](C)O)C(=O)N[C@@H](CCCCN)C(=O)N[C@@H](C)C(=O)N[C@@H](Cc1c[nH]c2ccccc12)C(=O)N[C@@H](CCCCN)C(=O)N[C@@H](CC(C)C)C(=O)N[C@@H](C)C(=O)N[C@@H](CC(C)C)C(=O)N[C@@H](CCCCN)C(=O)N[C@@H](C)C(=O)N[C@@H](C)C(N)=O` [KITLKLAIKAWKLALKAA], the MIC turned out to be 21.2 µM (≈ 42 µg/mL) against Pseudomonas aeruginosa, 5.3 µM (≈ 10.5 µg/mL) in the experiment on Escherichia coli and 5.3 µM (≈ 10.5 µg/mL) in the experiment on Staphylococcus aureus.

As to `CC(C)C[C@H](NC(=O)[C@H](Cc1ccc(O)cc1)NC(=O)[C@@H]1CCCN1C(=O)[C@@H]1CCCN1C(=O)[C@H](CCCCN)NC(=O)[C@@H]1CCCN1C(=O)[C@@H](N)C(C)C)C(=O)N1CCC[C@H]1C(=O)N[C@@H](CCCN=C(N)N)C(=O)N1CCC[C@H]1C(=O)N[C@@H](CCCN=C(N)N)C(=O)N1CCC[C@H]1C(=O)N1CCC[C@H]1C(=O)N[C@@H](CCCN=C(N)N)C(=O)N[C@@H](CCCN=C(N)N)C(=O)N[C@@H](CCCCN)C(=O)N[C@@H](Cc1ccc(O)cc1)C(=O)N[C@@H](CC(N)=O)C(=O)N[C@@H](CCCN=C(N)N)C(N)=O` [VPKPPYLPRPRPPRRKYNR], the MIC in [1] came to 1.68 µM (≈ 4 µg/mL); in experiment [2] it was 13.4 µM (≈ 32 µg/mL); in the experiment with Escherichia coli UB1005 it was 0.544 µM (≈ 1.3 µg/mL).

`CC[C@H](C)[C@H](NC(=O)[C@@H](NC(=O)[C@H](C)NC(=O)[C@@H]1CCCN1C(=O)[C@@H](NC(=O)[C@@H](NC(=O)[C@H](CCCCN)NC(=O)[C@H](CO)NC(=O)[C@H](C)NC(=O)[C@H](CC(C)C)NC(=O)[C@H](CCCN=C(N)N)NC(=O)CNC(=O)[C@H](CC(C)C)NC(=O)[C@H](C)NC(=O)[C@@H](N)CO)C(C)C)C(C)C)C(C)C)C(=O)NCC(=O)N[C@@H](CCCCN)C(=O)N[C@H](C(=O)N[C@H](C(=O)N[C@H](C(=O)O)[C@@H](C)O)[C@@H](C)O)C(C)C` [SALGRLASKVVPAVIGKVTT]: the minimal inhibitory concentration (MIC) is not below 130 µM with Bacillus cereus and more than 130 µM in the experiment with Escherichia coli.

`CC[C@H](C)[C@H](NC(=O)[C@H](Cc1ccccc1)NC(=O)[C@H](CO)NC(=O)[C@H](CCCCN)NC(=O)[C@H](Cc1c[nH]c2ccccc12)NC(=O)[C@@H](N)CCCCN)C(=O)N[C@@H](CCCCN)C(=O)N[C@@H](CCCCN)C(=O)N[C@@H](CC(C)C)C(=O)N[C@H](C(=O)N[C@@H](CO)C(=O)N[C@@H](CCCCN)C(=O)N[C@@H](C)C(=O)N[C@@H](CC(C)C)C(=O)N[C@@H](Cc1cnc[nH]1)C(=O)N[C@@H](CO)C(=O)N[C@@H](C)C(=O)N[C@@H](CCCCN)C(=O)N[C@@H](CCCCN)C(=O)N[C@@H](Cc1ccccc1)C(N)=O)[C@@H](C)O` [KWKSFIKKLTSKALHSAKKF] had an MIC in the experiment on Pseudomonas aeruginosa of 2.63 µM (≈ 6.25 µg/mL).

In the case of `CC[C@H](C)[C@H](NC(=O)[C@H](CCCCN)NC(=O)[C@H](Cc1ccccc1)NC(=O)[C@H](CC(C)C)NC(=O)[C@@H]1CCCN1C(=O)[C@H](CO)NC(=O)[C@@H]1CCCN1C(=O)[C@@H](NC(=O)[C@@H](NC(=O)[C@H](C)NC(=O)[C@@H](NC(=O)CNC(=O)[C@H](CCCCN)NC(=O)CNC(=O)[C@H](C)NC(=O)[C@H](CCCN=C(N)N)NC(=O)[C@H](CCCCN)NC(=O)[C@@H](N)C(C)C)C(C)C)C(C)C)C(C)C)C(=O)N[C@H](C(=O)N[C@H](C(=O)O)C(C)C)C(C)C` [VKRAGKGVAVVPSPLFKIVV], the MIC against Bacillus cereus is not below 124 µM; in the experiment with Escherichia coli it was more than 124 µM.

On to `CC[C@H](C)[C@H](NC(=O)CN)C(=O)N[C@@H](CCCCN)C(=O)N[C@@H](CCCCN)C(=O)N[C@@H](Cc1c[nH]c2ccccc12)C(=O)N[C@@H](CC(C)C)C(=O)N[C@@H](Cc1cnc[nH]1)C(=O)N[C@@H](CO)C(=O)N[C@@H](C)C(=O)N[C@@H](CCCCN)C(=O)N[C@@H](CCCCN)C(=O)N1CCC[C@H]1C(=O)NCC(=O)N[C@@H](CCCCN)C(=O)N[C@@H](CCCCN)C(=O)N[C@@H](Cc1ccccc1)C(=O)N[C@H](C(=O)N[C@@H](CCCCN)C(=O)N[C@@H](CCCCN)C(=O)N[C@H](C(=O)N[C@@H](CCSC)C(=O)N[C@@H](CC(N)=O)C(=O)N[C@@H](CO)C(N)=O)[C@@H](C)CC)C(C)C` [GIKKWLHSAKKPGKKFVKKIMNS], for which the MIC in experiment [3] and in experiment [4] was 5 µM (≈ 13.3 µg/mL) in each case.

As for `CC[C@H](C)[C@H](NC(=O)[C@H](Cc1ccccc1)NC(=O)[C@H](CO)NC(=O)[C@H](CCCCN)NC(=O)[C@H](Cc1c[nH]c2ccccc12)NC(=O)[C@@H](N)CCCCN)C(=O)N[C@@H](CCCCN)C(=O)N[C@@H](CCCCN)C(=O)N[C@@H](CC(C)C)C(=O)N[C@H](C(=O)N[C@@H](CO)C(=O)N[C@@H](CCCCN)C(=O)N[C@@H](Cc1ccccc1)C(=O)N[C@@H](CC(C)C)C(=O)N[C@@H](Cc1cnc[nH]1)C(=O)N[C@@H](CO)C(=O)N[C@@H](C)C(=O)N[C@@H](CC(N)=O)C(=O)N[C@@H](CCCCN)C(=O)N[C@@H](Cc1ccccc1)C(N)=O)[C@@H](C)O` [KWKSFIKKLTSKFLHSANKF], in the experiment with Pseudomonas aeruginosa, the minimum inhibitory concentration (MIC) was determined as 2.56 µM (≈ 6.25 µg/mL).

In the experiment with Pseudomonas aeruginosa, `CC[C@H](C)[C@H](NC(=O)[C@H](Cc1ccccc1)NC(=O)[C@H](CO)NC(=O)[C@H](CCCCN)NC(=O)[C@H](Cc1c[nH]c2ccccc12)NC(=O)[C@@H](N)CCCCN)C(=O)N[C@@H](CCCCN)C(=O)N[C@@H](CCCCN)C(=O)N[C@@H](CC(C)C)C(=O)N[C@H](C(=O)N[C@@H](CC(=O)O)C(=O)N[C@@H](CCCCN)C(=O)N[C@@H](Cc1ccccc1)C(=O)N[C@@H](CC(C)C)C(=O)N[C@@H](Cc1cnc[nH]1)C(=O)N[C@@H](CO)C(=O)N[C@@H](C)C(=O)N[C@@H](CCCCN)C(=O)N[C@@H](CCCCN)C(=O)N[C@@H](Cc1ccccc1)C(N)=O)[C@@H](C)O` [KWKSFIKKLTDKFLHSAKKF] showed an MIC of 10.1 µM (≈ 25 µg/mL). This MIC is about 3.9-fold higher than that of the compound before.

The term MIC denotes the lowest concentration that inhibits growth of the organism.

Values taken from DBAASP.
